Reference: the NIST ThermoML archive (doi:10.1016/j.tca.2014.07.002)
± gives the expanded uncertainty stated by the source.

Assay: xn = mol fraction of the nth substance listed
Settings: 101 kPa, Liquid, x1 = 0.423; for mass density: Buoyancy - hydrostatic balance

`O=C([O-])[O-].[Na+].[Na+]` [sodium carbonate] + [Cl-].[Na+] gave a mass density (973 K) of 1830 ± 40 kg/m3, a viscosity (973 K) of 17.02 ± 0.4 mPa·s and a mass density (1023 K) of 1810 ± 40 kg/m3. For the same compound, the viscosity (1023 K) was 9.285 ± 0.23 mPa·s, the mass density (1073 K) was 1800 ± 40 kg/m3 and the viscosity (1073 K) was 5.31 ± 0.14 mPa·s. It also gave a mass density (1123 K) of 1760 ± 40 kg/m3, a viscosity (1123 K) of 2.468 ± 0.079 mPa·s and a mass density (1173 K) of 1730 ± 40 kg/m3. It also gave a viscosity (1173 K) of 1.219 ± 0.051 mPa·s, a mass density (1223 K) of 1720 ± 30 kg/m3 and a mass density (1273 K) of 1680 ± 30 kg/m3.
